Data as given in PubChem BioAssay (NCI).
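Growth conditions: 96-well plates. Treatment: test compound, 48 hours, 5 concentrations. Analysis: linear interpolation between bracketing concentrations; unreached endpoints set to highest concentration. GI50 = concentration required for 50% inhibition of growth. The concentration for full growth arrest is given as TGI.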

Columns and labels:
Assay in all cases: growth of human tumour cells (NCI), 48 h
786-0 renal = system: 786-0 renal
A498 renal = system: A498 renal
A549 NSCLC = system: A549 NSCLC
ACHN renal = system: ACHN renal
BT-549 breast = system: BT-549 breast
CAKI-1 renal = system: CAKI-1 renal
CCRF-CEM leukemia = system: CCRF-CEM leukemia
COLO 205 colon = system: COLO 205 colon
DU-145 prostate = system: DU-145 prostate
HCC-2998 colon = system: HCC-2998 colon
HCT-116 colon = system: HCT-116 colon
HCT-15 colon = system: HCT-15 colon
HL-60(TB) leukemia = system: HL-60(TB) leukemia
HOP-62 NSCLC = system: HOP-62 NSCLC
HOP-92 NSCLC = system: HOP-92 NSCLC
HS 578T breast = system: HS 578T breast
HT29 colon = system: HT29 colon
IGROV1 ovarian = system: IGROV1 ovarian
K-562 leukemia = system: K-562 leukemia
KM12 colon = system: KM12 colon
LOX IMVI melanoma = system: LOX IMVI melanoma
M14 melanoma = system: M14 melanoma
MALME-3M melanoma = system: MALME-3M melanoma
MCF7 breast = system: MCF7 breast
MDA-MB-231 breast = system: MDA-MB-231 breast
MDA-MB-435 = system: MDA-MB-435
MOLT-4 leukemia = system: MOLT-4 leukemia
NCI-H226 lung = system: NCI-H226 lung
NCI-H23 lung = system: NCI-H23 lung
NCI-H460 lung = system: NCI-H460 lung
NCI-H522 lung = system: NCI-H522 lung
NCI/ADR-RES ovarian = system: NCI/ADR-RES ovarian
OVCAR-3 ovarian = system: OVCAR-3 ovarian
OVCAR-4 ovarian = system: OVCAR-4 ovarian
OVCAR-5 ovarian = system: OVCAR-5 ovarian
OVCAR-8 ovarian = system: OVCAR-8 ovarian
PC-3 prostate = system: PC-3 prostate
RPMI-8226 leukemia = system: RPMI-8226 leukemia
RXF 393 renal = system: RXF 393 renal
SF-268 CNS = system: SF-268 CNS
SF-295 CNS = system: SF-295 CNS
SF-539 CNS = system: SF-539 CNS
SK-MEL-2 melanoma = system: SK-MEL-2 melanoma
SK-MEL-28 melanoma = system: SK-MEL-28 melanoma
SK-MEL-5 melanoma = system: SK-MEL-5 melanoma
SK-OV-3 ovarian = system: SK-OV-3 ovarian
SN12C renal = system: SN12C renal
SNB-19 CNS = system: SNB-19 CNS
SNB-75 CNS = system: SNB-75 CNS
SR leukemia = system: SR leukemia
SW-620 colon = system: SW-620 colon
T-47D breast = system: T-47D breast
TK-10 renal = system: TK-10 renal
U251 CNS = system: U251 CNS
UACC-257 melanoma = system: UACC-257 melanoma
UACC-62 melanoma = system: UACC-62 melanoma
UO-31 renal = system: UO-31 renal

## CC(=O)c1nc2ccccc2n1CCN1CCN(C)CC1
786-0 renal
  GI50: 17.6 µM
  TGI: > 100 µM
A498 renal
  GI50: 3.46 µM
  TGI: > 52.7 µM
A549 NSCLC
  GI50: 2.63 µM
  TGI: > 100 µM
ACHN renal
  GI50: 23.4 µM
  TGI: > 100 µM
BT-549 breast
  GI50: 6.21 µM
  TGI: > 100 µM
CAKI-1 renal
  GI50: 34.1 µM
  TGI: > 100 µM
CCRF-CEM leukemia
  GI50: 3.29 µM
  TGI: > 100 µM
COLO 205 colon
  GI50: 1.89 µM
  TGI: 6.39 µM
DU-145 prostate
  GI50: 2.79 µM
  TGI: 12.3 µM
HCC-2998 colon
  GI50: 3.63 µM
  TGI: 26.9 µM
HCT-116 colon
  GI50: 1.2 µM
  TGI: > 100 µM
HCT-15 colon
  GI50: 25 µM
  TGI: > 100 µM
HL-60(TB) leukemia
  GI50: 2.62 µM
  TGI: > 26.2 µM
HOP-62 NSCLC
  GI50: 3.57 µM
  TGI: > 100 µM
HOP-92 NSCLC
  GI50: 0.416 µM
HS 578T breast
  GI50: 2.15 µM
  TGI: 25.9 µM
HT29 colon
  GI50: 0.639 µM
  TGI: 10.4 µM
IGROV1 ovarian
  GI50: 4.83 µM
  TGI: > 100 µM
K-562 leukemia
  GI50: 3.95 µM
  TGI: > 100 µM
KM12 colon
  GI50: 3.06 µM
  TGI: > 100 µM
LOX IMVI melanoma
  GI50: 2.6 µM
  TGI: > 100 µM
M14 melanoma
  GI50: 2.66 µM
  TGI: > 41.6 µM
MALME-3M melanoma
  GI50: 2.38 µM
  TGI: > 100 µM
MCF7 breast
  GI50: 1.16 µM
  TGI: > 100 µM
MDA-MB-231 breast
  GI50: 2.98 µM
  TGI: > 95.8 µM
MDA-MB-435
  GI50: 0.373 µM
  TGI: 1.69 µM
MOLT-4 leukemia
  GI50: 8.2 µM
  TGI: > 100 µM
NCI-H226 lung
  GI50: 31.5 µM
  TGI: > 100 µM
NCI-H23 lung
  GI50: 6.01 µM
  TGI: > 100 µM
NCI-H460 lung
  GI50: 2.3 µM
  TGI: > 100 µM
NCI-H522 lung
  GI50: 1.8 µM
  TGI: 6.11 µM
NCI/ADR-RES ovarian
  GI50: 61.1 µM
  TGI: > 100 µM
OVCAR-3 ovarian
  GI50: 2.6 µM
  TGI: > 26 µM
OVCAR-4 ovarian
  GI50: 15.7 µM
  TGI: > 100 µM
OVCAR-5 ovarian
  GI50: 3.5 µM
  TGI: > 100 µM
OVCAR-8 ovarian
  GI50: 3.76 µM
  TGI: > 100 µM
PC-3 prostate
  GI50: 2.41 µM
  TGI: > 100 µM
RPMI-8226 leukemia
  GI50: 1.9 µM
  TGI: > 100 µM
RXF 393 renal
  GI50: 1.59 µM
  TGI: 18.6 µM
SF-268 CNS
  GI50: 4.63 µM
  TGI: > 100 µM
SF-295 CNS
  GI50: 2.12 µM
  TGI: 15.4 µM
SF-539 CNS
  GI50: 2.28 µM
  TGI: > 50.4 µM
SK-MEL-2 melanoma
  GI50: 3.28 µM
  TGI: 47.6 µM
SK-MEL-28 melanoma
  GI50: 7.15 µM
  TGI: > 100 µM
SK-MEL-5 melanoma
  GI50: 3.13 µM
  TGI: > 100 µM
SK-OV-3 ovarian
  GI50: 3.61 µM
  TGI: 59.5 µM
SN12C renal
  GI50: 4.21 µM
  TGI: > 100 µM
SNB-19 CNS
  GI50: 17.3 µM
  TGI: > 100 µM
SNB-75 CNS
  GI50: 0.0668 µM
  TGI: 1.57 µM
SR leukemia
  GI50: 1.32 µM
  TGI: > 100 µM
SW-620 colon
  GI50: 2.8 µM
  TGI: > 100 µM
T-47D breast
  GI50: 2.97 µM
  TGI: > 100 µM
TK-10 renal
  GI50: 11.5 µM
  TGI: 84.3 µM
U251 CNS
  GI50: 3.82 µM
  TGI: > 100 µM
UACC-257 melanoma
  GI50: 5.47 µM
  TGI: > 100 µM
UACC-62 melanoma
  GI50: 4.11 µM
  TGI: > 100 µM
UO-31 renal
  GI50: 9.35 µM
  TGI: > 100 µM
